Patent publication US20210292843A1, “TREATMENT OF DISEASES ASSOCIATED WITH ACTIVATED IRAK” (CHILDREN'S HOSPITAL MEDICAL CENTER, priority 2016, published 2021)

What was measured:
Format in all cases: cell-based, human
[1] = system: K562 WT-U2AF1 cells; assay: Growth curve, cell viability by trypan blue exclusion; conditions: 10 uM inhibitor vs DMSO, 7 days, WT-U2AF1 cells (FIG. 13B)
Source text: (§1) Doxycycline-inducible FLAG-tagged WT U2AF1 or FLAG-tagged mutant U2AF1(S34F) lentiviral expression plasmids have been previously described, and lentivirus was generated in 293T cells with the packaging plasmids pMD-G, pMD-Lg and REV. Concentrated virus (multiplicity of infection (MOI) of 3 for K562, MOI of 5 for OCI-AML3) was used to transduce K562 cells (ATCC, CCL243) or OCI-AML3 (DSMZ, ACC 582). Transduced cells (marked by green fluorescent protein) were isolated by flow cytometry cell sorting. Expression of mutant or WT U2AF1 was induced using the indicated concentrations of doxycycline hyclate (Sigma) in water. (Shirai C, et al., 2017)
(§2) Trypan blue exclusion was measured using an automated cell counter (BioRad, Hercules, Calif., TC10). Cells were replenished with fresh media, doxycycline and drug every fifth day.
(§3) It was then investigated in whether or not there was a therapeutic opportunity in a subset of patients with increased IRAK4-Long expression, since expression of IRAK4-Long is associated with poor AML patient outcome (as described in Example 4, above). […] K562 WT- and S34F-U2AF1 were treated with DMSO or 10 uM IRAK1/4 inhibitor for 7 days, and cell viability was monitored by trypan blue exclusion. […]
(§4) Viability was measured by Trypan Blue staining. […] Colonies were counted after 7 days.

[2] = system: K562 S34F-U2AF1 cells; assay: as above; conditions: 10 uM inhibitor vs DMSO, S34F-U2AF1 cells (FIG. 13B)
Source text: as §1, §2, §3, §4

[3] = system: phospho-IRAK1, phospho-pIKK, and phospho-p65; assay: Immunoblotting of innate immune signaling after IRAK1/4 inhibitor treatment; conditions: S34F-U2AF1 K562 cells; IRAK1/4 inhibitor for 1 hour and 2 hours; immunoblot (FIG. 13A)
Experimental: Total protein lysates were obtained from cells by lysing the samples in cold RIPA buffer (50 mM Tris-HCl, 150 mM NaCl, 1 mM EDTA, 1% Triton X-100 and 0.1% SDS), in the presence of PMSF, sodium orthovanadate, protease and phosphatase inhibitors. Protein concentration was evaluated by a BCA assay (32106, Pierce, Rockford, Ill.). The bound proteins were separated by SDS-polyacrylamide gel electrophoresis, transferred to nitrocellulose membranes, and analyzed by immunoblotting. Western blot analysis was performed with the following antibodies: IRAK4 C-term (ab5985; Abcam, Cambridge, UK), IRAK N-term (4363; Cell Signaling Technology), GAPDH (5174; Cell Signaling Technology), Flag (F3165; Sigma, St. Louis, Mo.), IRAK1 (sc-7883; Santa Cruz, Dallas, Tex.), phospho-IRAK1 (T209) (A1074; AssaybioTech, Sunnyvale, Calif.), U2AF1 (ab86305; Abeam), IKKβ (2370; Cell Signaling Technology), phospho-IKKα/β (2697; Cell Signaling Technology), p38 MAPK (9212; Cell Signaling Technology), phopho-p38 MAPK (4631; Cell Signaling Technology), ERK (4695; Cell Signaling Technology), phospho-ERK (4377; Cell Signaling Technology), p65 (8242; Cell Signaling Technology) and phospho-p65 (3033; Cell Signaling Technology).
Doxycycline-inducible FLAG-tagged WT U2AF1 or FLAG-tagged mutant U2AF1(S34F) lentiviral expression plasmids have been previously described, and lentivirus was generated in 293T cells with the packaging plasmids pMD-G, pMD-Lg and REV. Concentrated virus (multiplicity of infection (MOI) of 3 for K562, MOI of 5 for OCI-AML3) was used to transduce K562 cells (ATCC, CCL243) or OCI-AML3 (DSMZ, ACC 582). […]
as §3, §4

[4] = system: K562 S34F-U2AF1 cells; assay: Clonogenic progenitor assay in methylcellulose; conditions: 10 uM inhibitor, colonies counted after 7 days, S34F-U2AF1 compared to WT-U2AF1 cells (FIG. 13C)
Source text: as §1
Clonogenic progenitor frequencies were determined by plating 1×10^3 K562 cells/ml in methylcellulose (Methocult H4236; Stem Cell Technologies). Colonies were scored after 7 days.
as §3, §4

O=C(Nc1nc2ccccc2n1CCN1CCOCC1)c1cccc([N+](=O)[O-])c1 [IRAK1/4 inhibitor]
decrease in proliferation and viability [1]: not seen
cell viability / survival over 7 days [2]: significantly reduced survival
phospho-IRAK1 level [3]: returned to normal
phospho-p65 level [3]: returned to normal
phospho-pIKK level [3]: returned to normal
colonies in methylcellulose (leukemic progenitor function) [4]: significantly fewer colonies
